Laboratory results from ChEMBL document CHEMBL5380858 (J Med Chem, 2023).
The source made the active and inactive calls. The calls are words filed in the database; no cut-off is given here.

Legend:
SARS-CoV-2 [1] = conditions: dose 60 mg/kg; route po; time 4 day
SARS-CoV-2 [2] = conditions: dose 30 mg/kg; route po; time 4 day
SARS-CoV-2 [3] = conditions: dose 60 mg/kg; route po; time 4 day; remark: listed apart in the source
SARS-CoV-2 [4] = format: functional, organism-based; conditions: Severe acute respiratory syndrome coronavirus 2; MA10; dose 60.0 mg/kg, route po, time 2-5 day
SARS-CoV-2 [5] = format: functional, organism-based; conditions: Severe acute respiratory syndrome coronavirus 2; MA10; dose 30.0 mg/kg, route po, time 2-5 day
SARS-CoV-2 [6] = format: functional, organism-based; conditions: Severe acute respiratory syndrome coronavirus 2; MA10; dose 30.0 mg/kg, route po, time 5.0 day
SARS-CoV-2 [7] = format: functional, organism-based; conditions: Severe acute respiratory syndrome coronavirus 2; MA10; dose 60.0 mg/kg, route po, time 2-5 day; remark: listed apart in the source
SARS-CoV-2 [8] = format: functional, organism-based; conditions: Severe acute respiratory syndrome coronavirus 2; MA10; dose 30.0 mg/kg, route po, time 2-5 day; remark: listed apart in the source
SARS-CoV-2 [9] = format: functional, organism-based; conditions: Severe acute respiratory syndrome coronavirus 2; MA10; dose 60.0 mg/kg, route po, time 2-5 day; remark: listed apart in the source
SARS-CoV-2 [10] = format: functional, organism-based; conditions: Severe acute respiratory syndrome coronavirus 2; MA10; dose 60.0 mg/kg, route po, time 2-5 day; remark: listed apart in the source
SARS-CoV-2 [11] = format: functional, organism-based; conditions: Severe acute respiratory syndrome coronavirus 2; MA10; dose 60.0 mg/kg, route po, time 2-5 day; remark: listed apart in the source
SARS-CoV-2 [12] = format: functional, organism-based; conditions: Severe acute respiratory syndrome coronavirus 2; MA10; dose 60.0 mg/kg, route po, time 2-5 day; remark: listed apart in the source
SARS-CoV-2 [13] = format: functional, organism-based; conditions: Severe acute respiratory syndrome coronavirus 2; MA10; Pneumocyte; dose 60.0 mg/kg, route po, time 2-5 day
SARS-CoV-2 [14] = conditions: dose 60 mg/kg; route po; time 5 day
SARS-CoV-2 [15] = format: functional, organism-based; conditions: Severe acute respiratory syndrome coronavirus 2; MA10; Pneumocyte; dose 30.0 mg/kg, route po, time 2-5 day
SARS-CoV-2 [16] = format: functional, organism-based; conditions: Severe acute respiratory syndrome coronavirus 2; MA10; dose 60.0 mg/kg, route po, time 3-5 day
SARS-CoV-2 [17] = format: functional, organism-based; conditions: Severe acute respiratory syndrome coronavirus 2; MA10; dose 30.0 mg/kg, route po, time 2-5 day; remark: listed apart in the source
SARS-CoV-2 [18] = format: functional, organism-based; conditions: Severe acute respiratory syndrome coronavirus 2; MA10; dose 30.0 mg/kg, route po, time 2-5 day; remark: listed apart in the source
SARS-CoV-2 [19] = format: functional, organism-based; conditions: Severe acute respiratory syndrome coronavirus 2; MA10; dose 30.0 mg/kg, route po, time 2-5 day; remark: listed apart in the source
SARS-CoV-2 [20] = format: functional, organism-based; conditions: Severe acute respiratory syndrome coronavirus 2; MA10; dose 30.0 mg/kg, route po, time 2-5 day; remark: listed apart in the source
SARS-CoV-2 [21] = format: functional, organism-based; conditions: Severe acute respiratory syndrome coronavirus 2; MA10; dose 30.0 mg/kg, route po, time 2-5 day; remark: listed apart in the source
SARS-CoV-2 [22] = format: functional, organism-based; conditions: Severe acute respiratory syndrome coronavirus 2; MA10; dose 30.0 mg/kg, route po, time 2-5 day; remark: listed apart in the source
SARS-CoV-2 [23] = format: functional, organism-based; conditions: Severe acute respiratory syndrome coronavirus 2; MA10; dose 30.0 mg/kg, route po, time 2.0 day
SARS-CoV-2 [24] = format: functional, organism-based; conditions: Severe acute respiratory syndrome coronavirus 2; MA10; Pneumocyte; dose 30.0 mg/kg, route po, time 2-5 day; remark: listed apart in the source
SARS-CoV-2 [25] = format: functional, organism-based; conditions: Severe acute respiratory syndrome coronavirus 2; MA10; dose 60.0 mg/kg, route po, time 2-5 day; remark: listed apart in the source
SARS-CoV-2 [26] = format: functional, organism-based; conditions: Severe acute respiratory syndrome coronavirus 2; MA10; dose 30.0 mg/kg, route po, time 2-5 day; remark: listed apart in the source
SARS-CoV-2 [27] = format: functional, organism-based; conditions: Severe acute respiratory syndrome coronavirus 2; MA10; dose 60.0 mg/kg, route po, time 5.0 day
SARS-CoV-2 [28] = format: functional, organism-based; conditions: Severe acute respiratory syndrome coronavirus 2; MA10; dose 60.0 mg/kg, route po, time 2-5 day; remark: listed apart in the source
SARS-CoV-2 [29] = format: functional, organism-based; conditions: Severe acute respiratory syndrome coronavirus 2; MA10; Pneumocyte; dose 60.0 mg/kg, route po, time 2-5 day; remark: listed apart in the source
SARS-CoV-2 [30] = format: functional, organism-based; conditions: Severe acute respiratory syndrome coronavirus 2; MA10; dose 30.0 mg/kg, route po, time 2-5 day; remark: listed apart in the source
SARS-CoV-2 [31] = conditions: dose 30 mg/kg; route po; time 5 day
SARS-CoV-2 [32] = format: functional, organism-based; conditions: Severe acute respiratory syndrome coronavirus 2; MA10; dose 60.0 mg/kg, route po, time 2-5 day; remark: listed apart in the source
SARS-CoV-2 [33] = conditions: dose 60 mg/kg; route po; time 2 day
SARS-CoV-2 [34] = conditions: dose 30 mg/kg; route po; time 5 day; remark: listed apart in the source
SARS-CoV-2 [35] = conditions: dose 30 mg/kg; route po; time 4 day; remark: listed apart in the source

Question: CC(C)C(=O)OC[C@H]1O[C@@H](n2cc/c(=N\O)[nH]c2=O)[C@H](O)[C@@H]1O [MOLNUPIRAVIR] was tested. Which “log(activity)” value (SARS-CoV-2 [1]) did it give?
Answer: 2.9

Question: And the “log(activity)” value (SARS-CoV-2 [2])?
Answer: 2.1

Question: And the “log(activity)” value (SARS-CoV-2 [3])?
Answer: 2.6

Question: For CCCCCCCCCCCCCCCCCCOC[C@H](COP(=O)(O)OC[C@H]1O[C@@](C#N)(c2ccc3c(N)ncnn23)[C@H](O)[C@@H]1O)OCc1ccccc1, which Activity (SARS-CoV-2 [4]) is on record?
Answer: inactive

Question: What about the Activity (SARS-CoV-2 [5]) of the same molecule?
Answer: inactive

Question: And the Activity (SARS-CoV-2 [6])?
Answer: inactive

Question: And the Activity (SARS-CoV-2 [7])?
Answer: inactive

Question: And the Activity (SARS-CoV-2 [8])?
Answer: inactive

Question: And the Activity (SARS-CoV-2 [9])?
Answer: inactive

Question: And the Activity (SARS-CoV-2 [10])?
Answer: inactive

Question: And the Activity (SARS-CoV-2 [11])?
Answer: inactive

Question: And the Activity (SARS-CoV-2 [12])?
Answer: inactive

Question: And the Activity (SARS-CoV-2 [13])?
Answer: inactive

Question: And the “log(activity)” value (SARS-CoV-2 [14])?
Answer: >2.14

Question: And the Activity (SARS-CoV-2 [15])?
Answer: inactive

Question: And the Activity (SARS-CoV-2 [16])?
Answer: Active

Question: What about the Activity (SARS-CoV-2 [17]) of the same molecule?
Answer: inactive

Question: What about the Activity (SARS-CoV-2 [18]) of the same molecule?
Answer: inactive

Question: What about the Activity (SARS-CoV-2 [19]) of the same molecule?
Answer: inactive

Question: And the Activity (SARS-CoV-2 [20])?
Answer: inactive

Question: What about the Activity (SARS-CoV-2 [21]) of the same molecule?
Answer: inactive

Question: What about the Activity (SARS-CoV-2 [22]) of the same molecule?
Answer: inactive

Question: What about the Activity (SARS-CoV-2 [23]) of the same molecule?
Answer: Active

Question: And the Activity (SARS-CoV-2 [24])?
Answer: inactive

Question: And the Activity (SARS-CoV-2 [25])?
Answer: inactive

Question: And the Activity (SARS-CoV-2 [26])?
Answer: inactive

Question: And the Activity (SARS-CoV-2 [27])?
Answer: Active

Question: What about the Activity (SARS-CoV-2 [28]) of the same molecule?
Answer: inactive

Question: What about the Activity (SARS-CoV-2 [29]) of the same molecule?
Answer: inactive

Question: And the Activity (SARS-CoV-2 [30])?
Answer: inactive

Question: And the “log(activity)” value (SARS-CoV-2 [31])?
Answer: >2.14

Question: And the Activity (SARS-CoV-2 [32])?
Answer: inactive

Question: What about the “log(activity)” value (SARS-CoV-2 [33]) of the same molecule?
Answer: 1.52

Question: What about the “log(activity)” value (SARS-CoV-2 [34]) of the same molecule?
Answer: >2.14

Question: Which “log(activity)” value (SARS-CoV-2 [35]) does the source give for CC(C)C(=O)OC[C@H]1O[C@@](C#N)(c2ccc3c(N)ncnn23)[C@H](OC(=O)C(C)C)[C@@H]1OC(=O)C(C)C here?
Answer: >2.9

Question: What about the “log(activity)” value (SARS-CoV-2 [3]) of the same molecule?
Answer: >2.9
